The text below walks through data of PMC10779871, “Anti-Trypanosomal Bufadienolides from the Oocytes of the Toad Rhinella alata (Anura, Bufonidae)” (Molecules, 2023).

A short description of data set [1]: Cytotoxicity assay (MTT) on Vero cells. Type of data set: cell-based. The following applies: monkey, five days, read-out: VERO CELL CC50. As to the method: Epithelial kidney monkey Vero cells were incubated at 37 °C in 96-well plates under an atmosphere of 5% CO2, using RPMI-1640 medium (Sigma-Aldrich, St. Louis, MO, USA) supplemented with 0.05% gentamicin (50 mg/mL) and 10% FBS (fetal bovine serum; Gibco, Invitrogen, Carlsbad, CA, USA). Cells were allowed to adhere for one day before incubation for five days with the compounds. Doxorubicin and DMSO were used as positive and negative controls, respectively. When the incubation period ended, 3-(4, 5-di-methyl-thiazol-2-yl)-2, 5-di-phenyl-tetra-zolium bromide (MTT) was added to the wells, and after 4 h, absorbance was measured at 570 nm using a color plate reader. Cytotoxicity was assessed colorimetrically by calculating the capacity of the remaining Vero cells to reduce the yellow MTT into the dark purple formazan product, as reported.
(§1) All bioassays represent independent analysis and were carried out in duplicate. The data analysis complement Wizard of Excel 2000 (Microsoft, Seattle, WA, USA) was used for the statistical analysis of the 50% inhibiting (IC50) and cytotoxic (CC50) concentration values by adjusting the dose-response curve to a sigmoidal model.

The test system of the next data set is T. cruzi trypomastigotes. Put plainly: Anti-trypanosomal bioassay, T. cruzi Tulahuen clone C4 expressing β-galactosidase. Type of data set: cell-based, Trypanosoma cruzi. The following applies: for EC50: Trypanosoma cruzi, 120 h, read-out: T. cruzi EC50; for Inhibition of the growth of T. cruzi trypomastigotes (in words): four concentrations, screening concentration of 10 µg/mL. As to the method: Anti-trypanosomal bioassays were performed using the recombinant strain Tulahuen, clone C4, of T. cruzi in the form of trypomastigotes (ATCC, Manassas, VA, USA). This strain expresses the enzyme β-galactosidase. The parasites were incubated at 37 °C under an atmosphere of 5% CO2 in RPMI-1640 culture medium supplemented with L-glutamine,4-(2-hydroxyethyl)-piperazine-1-ethanesulfonic acid (HEPES) buffer, NaHCO3, 10% FBS and 0.05% gentamicin (50 mg/mL). Epithelial kidney monkey Vero cells (ATCC, Manassas, VA, USA) were incubated for 24 h and then infected with the parasites 24 h prior to the addition of the compounds. After additional 24 h of infection, the compounds (1–7) were dissolved in DMSO and tested at 10, 2, 0.4 and 0.08 µg/mL for five days. The drug benznidazole was used as a positive control. Chlorophenol-red-β-D-galactopyranoside (Roche Applied Science) was added to each well and then allowed to react with the β-galactosidase of the rest of the living parasites for 4.5 h to quantify the biological activity. Absorbance was measured at 570 nm using a plate reader (Sinergy HT, BioTek Instruments Inc., Winooski, VT, USA).
as §1

A further data set relates to Vero cells. Also on record: method as in PMID 32061723. Conditions: in comparison with bufadienolide 7; cited from earlier work.
Data set [2] has as its system T. cruzi. More on the design: method as in PMID 32061723. The following applies: read-out: IC50 anti-trypanosomal activity; cited from earlier work.
Another data set deals with erythrocytes. The following applies: cited from earlier work.
The test system of a further data set is mouse macrophages. Conditions: cited from earlier work.
Data set [3] relates to T. cruzi. The following applies: previous study; cited from earlier work.
For data set [4], the system named is Batrachochytrium dendrobatidis. Conditions: cited from earlier work.
The conditions of data set [5]: cited from earlier work.
The test system of another data set is (Na+)ATPase. Conditions: cited from earlier work.
The mark [6] stands for this setting: trypomastigote form, Tulahuen clone C4, five days, tested at 10, 2, 0.4 and 0.08 µg/mL.
The mark [7] stands for this setting: monkey (Vero host cells), Trypanosoma cruzi (parasite), read-out: Selectivity (CC50/EC50).

Where two headings read alike, the source gives them in different places.

As usually defined, the CC50 is the concentration at which the toxic effect on the cells reaches its halfway point. In general, EC50 refers to the concentration needed to bring the measured effect to its halfway point. For `O=C(Cn1ccnc1[N+](=O)[O-])NCc1ccccc1` [Benznidazole, reference compound], the CC50 in data set [1] was 51400 ± 6000 nM. Also, the EC50 with T. cruzi trypomastigotes (setting [6]) worked out at 2.73 ± 0.1 µM. In addition, the selectivity ratio in the data set on T. cruzi trypomastigotes (setting [7]) was found to be 18.8.

Take `COc1cccc2c1C(=O)c1c(O)c3c(c(O)c1C2=O)C[C@@](O)(C(=O)CO)C[C@@H]3O[C@H]1C[C@H](N)[C@H](O)[C@H](C)O1` [Doxorubicin, reference compound]: the CC50 in data set [1] is 230 nM.

In general, melting point refers to the temperature of the solid-liquid transition. Consider `C[C@]12CC[C@H](O)C[C@H]1CC[C@@H]1[C@@H]2CC[C@]2(C)[C@@H](c3ccc(=O)oc3)[C@@H](O)C[C@]12O` [Compound 2, desacetyl-bufotalin], for which the melting point came to 71 °C. The CC50 in data set [1] was greater than 28000 nM. For the same molecule, in the data set on T. cruzi trypomastigotes (setting [6]), the “T. cruzi EC50” value is “Inactive”.

As a reminder, the IC50 is the midpoint of a concentration-inhibition curve. `C[C@]12CC[C@H]3[C@@H](CC[C@@H]4C[C@@H](O)CC[C@@]43CO)[C@@]1(O)CC[C@@H]2c1ccc(=O)oc1` [19-hydroxy-bufalin]: in the data set on Vero cells, the “Cytotoxicity against Vero cells (in words)” value is listed as “low cytotoxicity”. For the same molecule, the IC50 in the data set on T. cruzi [2] was 19.4 µM.

As to `CC12CCC3C(CCC4(O)CC(O)CCC34C=O)C1(O)CC(O)C2c1ccc(=O)oc1` (stereo not drawn) [Compound 1, 16β-hydroxyl-hellebrigenin], in [1], the CC50 is greater than 135000 nM. Further, the EC50 in the data set on T. cruzi trypomastigotes (setting [6]) turned out to be 22.8 ± 4.11 µM. Further, in the data set with T. cruzi trypomastigotes, the “Inhibition of the growth of T. cruzi trypomastigotes (in words)” value (“Inhibition of the growth … (in words)” for short) is listed as “reduce the growth”. In the data set on T. cruzi trypomastigotes (setting [7]), the selectivity ratio was greater than 5.

With `C[C@]12CC[C@H](O)C[C@@]1(O)CC[C@@H]1[C@@H]2CC[C@]2(C)[C@@H](c3ccc(=O)oc3)CC[C@]12O` [telocinobufagin], in the data set on erythrocytes, the “Cytotoxicity on erythrocytes (in words)” value is given as “no toxic effects”. In the data set with mouse macrophages, the “Cytotoxicity on mouse macrophages (in words)” value is recorded as “no toxic effects”. Also, in the data set with T. cruzi [3], the Trypanocidal activity entry was “inactive”. Also, the “Inhibition of Batrachochytrium dendrobatidis in vitro (in words)” value (“Inhibition … in vitro (in words)” for short) in [4] is listed as “inhibit”.

On to `C[C@]12CC[C@H]3[C@@H](CC[C@]4(O)C[C@@H](O)CC[C@]34C=O)[C@@]1(O)CC[C@@H]2c1ccc(=O)oc1` [hellebrigenin], for which the “Cytotoxicity on erythrocytes (in words)” value with erythrocytes is “no toxic effects”. Moreover, the “Cytotoxicity on mouse macrophages (in words)” value in the data set on mouse macrophages is reported as “no toxic effects”. Besides, in the data set with T. cruzi [3], the Trypanocidal activity is 91.7 µg/mL.

Consider `CCC(=O)OC1C(c2ccc(=O)oc2)C2(C)CCC3C(CCC4(O)CC(O)CCC34C)C23OC13` (stereo not drawn) [Compound 6, dyscinobufotalin], for which the CC50 in data set [1] came out at 20 ± 2 nM. In the data set with T. cruzi trypomastigotes (setting [6]), the EC50 turned out to be 12.3 ± 1.87 µM. In the data set on T. cruzi trypomastigotes, the “Inhibition of the growth … (in words)” value is listed as “reduce the growth”. In the data set with T. cruzi trypomastigotes (setting [7]), the selectivity ratio was less than 0.01.

Consider `C[C@]12CC[C@H](O)C[C@H]1CC[C@@H]1[C@@H]2[C@H](O)C[C@]2(C)[C@@H](c3ccc(=O)oc3)CC[C@]12O` [γ-bufotalin], for which, in data set [4], the “Inhibition … in vitro (in words)” value is on record as “inhibit”.

Regarding `C[C@]12CC[C@H](O)C[C@H]1CC[C@@H]1[C@@H]2CC[C@]2(C)[C@@H](c3ccc(=O)oc3)CC[C@]12O` [Compound 7, bufalin], the CC50 at 5 days in [1] is 10.6 ± 1.54 µM. In addition, the EC50 with T. cruzi trypomastigotes (TULAHUEN) was 3.93 ± 0.57 µM. For the same molecule, the “Selectivity (CC50/EC50)” value with T. cruzi trypomastigotes (cytotoxicity on Vero cells/anti-trypanosomal activity ratio) is 2.69. In addition, in the data set on T. cruzi trypomastigotes, the “Inhibition of the growth … (in words)” value was “reduce the growth”. For the same molecule, in the data set with T. cruzi trypomastigotes (monkey (Vero host cells), Trypanosoma cruzi (parasite), cytotoxicity on Vero cells/anti-trypanosomal activity ratio, read-out: Selectivity (CC50/EC50)), the selectivity ratio at 5 days worked out at 2.7.

As to `CC(=O)O[C@H]1[C@H]2O[C@]23[C@@H]2CC[C@]4(O)C[C@@H](O)CC[C@]4(C)[C@H]2CC[C@]3(C)[C@H]1c1ccc(=O)oc1` [Compound 5, cinobufotalin], the CC50 in data set [1] worked out at 1880 ± 200 nM. The EC50 with T. cruzi trypomastigotes (setting [6]) turned out to be 27.8 ± 3.77 µM. For the same molecule, the “Inhibition of the growth … (in words)” value with T. cruzi trypomastigotes is “reduce the growth”. Besides, in the data set on T. cruzi trypomastigotes (setting [7]), the selectivity ratio was found to be 0.07.

Consider `C[C@]12CC[C@H](O)C[C@H]1CC[C@@H]1[C@@H]2[C@H](O)C(=O)[C@]2(C)[C@@H](c3ccc(=O)oc3)CC[C@]12O` [Arenobufagin], for which the “Inhibition … in vitro (in words)” value in [4] is recorded as “inhibit”.

As for `Clc1ccc(C2CC3CCC2N3)cn1` (stereo not drawn) [epibatidine], in data set [5], the “Analgesic potency relative to morphine” value was 200 times more potent than morphine.

`CC(=O)O[C@H]1C[C@]2(O)[C@@H]3CC[C@@H]4C[C@@H](O)CC[C@]4(C)[C@H]3CC[C@]2(C)[C@H]1c1ccc(=O)oc1` [Compound 4, bufotalin]: the CC50 in data set [1] was greater than 46000 nM. Besides, the EC50 with T. cruzi trypomastigotes (setting [6]) was found to be 19.6 ± 2 µM. In the data set with T. cruzi trypomastigotes, the “Inhibition of the growth … (in words)” value is given as “reduce the growth”. Also, the selectivity ratio in the data set with T. cruzi trypomastigotes (setting [7]) is greater than 2.

For the molecule `C[C@@H]1O[C@@H](O[C@H]2C[C@@H](O)[C@]3(CO)[C@H]4[C@H](O)C[C@]5(C)[C@@H](C6=CC(=O)OC6)CC[C@]5(O)[C@@H]4CC[C@]3(O)C2)[C@H](O)[C@H](O)[C@H]1O` [ouabain], the “Inhibition of enzymatic activity of (Na+)ATPase (in words)” value in the data set with (Na+)ATPase is recorded as “not inhibited”.

Regarding `CCC(=O)OC1C(c2ccc(=O)oc2)C2(C)CCC3C(CCC4(O)CC(O)CCC34C=O)C23OC13` (stereo not drawn) [Compound 3, 19-formyl-dyscinobufotalin], the CC50 in [1] came out at 220 ± 90 nM. The EC50 in the data set with T. cruzi trypomastigotes (setting [6]) amounted to 0.19 ± 0.07 µM. The “Inhibition of the growth … (in words)” value in the data set with T. cruzi trypomastigotes is on record as “reduce the growth”. Also, in the data set with T. cruzi trypomastigotes (setting [7]), the selectivity ratio was 1.16.
